Key:
[1] = test system: plasma proteins; assay: Plasma protein binding; assay type: in vitro ADME
[2] = clinical; details: human, in vivo
Method: Histone H3 and H4 acetylation was analyzed in peripheral blood mononuclear cells (PBMCs) by immunohistochemical detection.
Blood samples (5 ml) were taken at the following times:
Blood was centrifuged for 10 minutes at 2000 g at room temperature within approximately 30 minutes after withdrawal; plasma was separated and stored at −18° C. to −25° C. until analysis.

[3] = test system: histone H3, H4 and protein acetylation; assay: Histone H3, H4 and protein acetylation, p21 and caspase-3 in PBMCs and BMMCs (Example 3); assay type: in vivo, human
Method: Serial marrow and/or peripheral blood cells were collected at weekly intervals to examine PAMC-induced changes in histone acetylation.
Changes in histone H3, H4 and protein acetylation (immunocytochemistry, multiparameter flow cytometry and western blot analysis.) Immunocytochemical analysis of histone H3 was performed on bone marrow mononuclear cells (BMMCs) as described previously. The multiparameter flow cytometric analysis of protein acetylation versus caspase-3 activation was performed on serial BM aspirates using monoclonal anti-acetylated lysine antibody (Cell Signaling Technology, Beverly, Mass.) followed by FITC-conjugated goat anti-mouse antibody (Caltag Laboratories, Burlingame, Calif.) and polyclonal PE-conjugated anti-caspase-3, active form antibody (BD Pharmingen, Sand Diego, Calif.). The analysis of protein acetylation versus p21 expression or CD 34 expression was performed using polyclonal anti-acetylated lysine antibody (Cell Signaling Technology) versus monoclonal anti-p21 antibody (BD Transduction Laboratories, San Jose, Calif.) or monoclonal anti-CD34 antibody (BD Pharmingen). Primary antibodies were detected using PE-conjugated goat anti-mouse and FITC-conjugated goat anti-rabbit antibodies (Caltag Laboratories). For staining, BMMCs were isolated using Ficoll-Paque Plus (Amersham Biosciences, Piscataway, N.J.) fixed in 0.4% paraformaldehyde, permeabilized with 0.4% Triton X-100, incubated with primary antibodies for 1 hour at room temperature, washed, incubated with secondary antibodies for 1 hour, washed and analyzed on a FACSCalibur flow cytometer (Becton Dickinson, San Jose, Calif.) using CellQuest software for acquisition and FloJo software for analysis.
For western blot analysis of histone acetylation, PBMCs and BMMCs were isolated using Ficoll-Paque Plus (Amersham Biosciences). Histones from the cells were prepared as follows: Cells were washed in 2 ml HBSS and disrupted by a 1 mL ice-cold lysis buffer A (10 mM Tris pH 7.6, 5 mM butyric acid, 1% Triton X-100, 1 mM MgCl2, and 1 mM PMSF). Nuclei were collected by centrifugation at 14,000 rpm for 15 min. The pellet was resuspended once with 250 μL ice-cold lysis buffer B (10 mM Tris pH 7.6, 0.25 M Sucrose, 3 mM CaCl2 and 5 mM butyric acid). Sulfuric acid was added to a concentration of 0.4 N and the tubes were incubated at 4° C. overnight. Debris was pelleted by centrifugation, and the supernatant was collected. Histones were precipitated by addition of 10 volumes of acetone and incubation at −20° C. overnight. Pellets were collected by centrifugation, briefly dried under vacuum and resuspended with dH2O. The total protein content was determined by a bicinchoninic acid assay kit (Pierce, Rockford, Ill.). The proteins 10-30 μg were separated by 15% SDS PAGE and visualized using the antibodies for acetyl-histone H3, acetyl-histone H4, and histone H2A, all from Upstate Biotechnologies (Lake Placid, N.Y.). The immunoreactive proteins were detected using ECL western blotting analysis system (Amersham Biosciences). Radiographic films of histone acetylation were scanned and digitized (UN-SCAN-IT), Silk Scientific, UT).

Question: With `Nc1ccccc1NC(=O)c1ccc(CNC(=O)OCc2cccnc2)cc1` [SNDX-275, N-(2-aminophenyl) 4-[N-(pyrid-3-yl)methyloxycarbonylaminomethyl]benzamide] as the molecule, how does the “binding to albumin versus other plasma proteins” value [1] read?
Answer: Its value is “no greater binding affinity to albumin than other plasma proteins”.

Question: And the protein bound [1]?
Answer: Its protein bound is “≈ 80%”.

Question: What about the Tmax [2] of the same molecule?
Answer: Its Tmax is 0.5 to 2.0 h.

Question: And the “apparent drug clearance (CL/F)” value [2]?
Answer: The value was “low”.

Question: What about the AUC ([2]; 2 mg/m2) of the same molecule?
Answer: Its AUC is 107 ng·h/mL.

Question: And the AUC(0-t) ([2]; 2 mg/m2, AUC(0-48))?
Answer: The AUC(0-t) was 60.1 ng·h/mL.

Question: What about the Cmax ([2]; 2 mg/m2, Cmax) of the same molecule?
Answer: Its Cmax is 25.3 ng/mL.

Question: What about the AUC ([2]; 2 mg/m2, Mean AUC) of the same molecule?
Answer: Its AUC is 135 ng·h/mL.

Question: What about the half-life ([2]; 2 mg/m2, Mean t1/2) of the same molecule?
Answer: The half-life was 54 h.

Question: What about the Tmax ([2]; 2 mg/m2, Median Tmax) of the same molecule?
Answer: The Tmax was 0.6 h.

Question: What about the half-life ([2]; 2 mg/m2, T1/2) of the same molecule?
Answer: The half-life was 100 h.

Question: And the Tmax ([2]; 2 mg/m2, Tmax)?
Answer: Its Tmax is 0.5 h.

Question: And the AUC ([2]; 4 mg/m2, Mean AUC)?
Answer: The AUC was 323 ng·h/mL.

Question: And the half-life ([2]; 4 mg/m2, Mean t1/2)?
Answer: The half-life was 87.9 h.

Question: What about the Tmax ([2]; 4 mg/m2, Median Tmax) of the same molecule?
Answer: The Tmax was 0.5 h.

Question: What about the T1/2 ([2]; 5 mg/m2) of the same molecule?
Answer: The T1/2 was 77 h.

Question: And the AUC ([2]; 5 mg/m2, AUC)?
Answer: Its AUC is 432 ng·h/mL.

Question: And the AUC(0-t) ([2]; 5 mg/m2, AUC(0-48))?
Answer: The AUC(0-t) was 153 ng·h/mL.

Question: What about the Cmax ([2]; 5 mg/m2, Cmax) of the same molecule?
Answer: The Cmax was 72 ng/mL.

Question: What about the AUC ([2]; 5 mg/m2, Mean AUC) of the same molecule?
Answer: The AUC was 494 ng·h/mL.

Question: What about the Cmax ([2]; 5 mg/m2, Mean Cmax) of the same molecule?
Answer: Its Cmax is 77.3 ng/mL.

Question: And the half-life ([2]; 5 mg/m2, Mean t1/2)?
Answer: The half-life was 133 h.

Question: And the Tmax ([2]; 5 mg/m2, Median Tmax)?
Answer: The Tmax was 0.5 h.

Question: And the half-life ([2]; 5 mg/m2, T1/2)?
Answer: Its half-life is 112 h.

Question: What about the “Mean CL/F” value ([2]; 6 mg/m2) of the same molecule?
Answer: The value was 16.7 L/h.

Question: What about the AUC ([2]; 6 mg/m2, AUC) of the same molecule?
Answer: The AUC was 412 ng·h/mL.

Question: And the AUC(0-t) ([2]; 6 mg/m2, AUC(0-48))?
Answer: The AUC(0-t) was 170 ng·h/mL.

Question: What about the AUC ([2]; 6 mg/m2, Mean AUC) of the same molecule?
Answer: The AUC was 459 ng·h/mL.

Question: What about the Cmax ([2]; 6 mg/m2, Mean Cmax) of the same molecule?
Answer: The Cmax was 37.3 ng/mL.

Question: And the half-life ([2]; 6 mg/m2, Mean t1/2)?
Answer: Its half-life is 107 h.

Question: What about the Tmax ([2]; 6 mg/m2, Median Tmax) of the same molecule?
Answer: Its Tmax is 1 h.

Question: And the half-life ([2]; 6 mg/m2, T1/2)?
Answer: Its half-life is 102 h.

Question: And the half-life ([2]; T1/2)?
Answer: Its half-life is about 100 h.

Question: And the Tmax ([2]; Tmax)?
Answer: The Tmax was at most 1 h.

Question: What about the “histone H3 and H4 acetylation by western blotting” value ([3]; PBMCs and BMMCs, 8 patients at DL 4 and 1 patient at DL 5) of the same molecule?
Answer: Its value is “increase in histone H3 and H4 acetylation”.

Question: What about the “protein and H3/H4 acetylation, p21 expression, caspase-3 activation” value ([3]; bone marrow mononuclear cells) of the same molecule?
Answer: The value was “increase in protein and H3/H4 acetylation, p21 expression, and caspase-3 activation”.

Question: And the “specimens with caspase-3 activation” value ([3]; flow cytometric analysis)?
Answer: The value was 67%.

Question: What about the “time at which increase in histone H3 and H4 acetylation was evident” value ([3]; following SNDX-275 treatment, 4 patients with early PB specimens) of the same molecule?
Answer: Its value is 8 to 12 h.

Question: And the “persistence of histone acetylation following last SNDX-275 administration” value ([3]; in vivo)?
Answer: The value was 2-3 weeks.

Question: What about the “histone H3 acetylation by immunocytochemistry” value ([3]; lowest dose level) of the same molecule?
Answer: The value was “increase in histone H3 acetylation”.

From patent publication US20130303575A1, “ADMINISTRATION OF AN INHIBITOR OF HDAC” (priority 2007, published 2013)
